Assay [1] concerns the target T1, human GPR119 (Homo sapiens, UniProt Q8TDV5).
T1 construct: host or cells: HEK293-CRE-beta-lactamase
T1 sequence (Q8TDV5 1-335): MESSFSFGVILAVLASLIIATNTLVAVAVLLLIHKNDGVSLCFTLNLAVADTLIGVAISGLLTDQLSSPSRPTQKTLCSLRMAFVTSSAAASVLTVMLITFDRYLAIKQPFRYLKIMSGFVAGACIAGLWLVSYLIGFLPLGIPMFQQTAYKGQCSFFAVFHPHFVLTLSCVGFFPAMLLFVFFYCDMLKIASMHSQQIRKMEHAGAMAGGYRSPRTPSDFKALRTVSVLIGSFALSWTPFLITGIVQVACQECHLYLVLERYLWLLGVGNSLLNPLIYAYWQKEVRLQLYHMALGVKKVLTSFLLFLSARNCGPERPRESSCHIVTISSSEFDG
As to the kind of experiment: cAMP HTRF functional assay (hGPR119 HEK-CRE beta-lactamase cells). The assay is classed as cell-based. The conditions noted are these: one value per run; for Intrinsic Activity* (cAMP) / Emax: percent of maximal activity relative to standard GPR119 agonist (WO2005121121) at 10 μM; for Emax: read-out: Intrinsic Activity* (cAMP); for pEC50: hGPR119 HEK-CRE beta-lactamase cells, HTRF cAMP.

The target of assay [2] is T1, human GPR119. As to the kind of experiment: beta-lactamase reporter functional assay (hGPR119 HEK293-CRE beta-lactamase cells). To be noted: one value per run. The assay is classed as cell-based.
The target of assay [3] is T2, human GPR119 (Homo sapiens, UniProt Q8TDV5).
T2 construct: host or cells: U2OS
Nature of the assay: beta-arrestin functional assay (DiscoverX PathHunter U2OS hGPR119 beta-arrestin cells). To be noted: one value per run; for pEC50: U2OS hGPR119 beta-arrestin cells, read-out: Human B-arrestin Functional EC50; for Emax: U2OS, percent of maximal activity relative to standard GPR119 agonist (WO2005121121) at 10 microM, read-out: Intrinsic Activity* (B-arrestin). The class given is cell-based. As to the method:
GPR119 agonist activity was also determined with a cell-based assay utilizing DiscoverX PathHunter β-arrestin cell assay technology and their U2OS hGPR119 β-arrestin cell line (DiscoverX Cat #93-0356C3). In this assay, agonist activation is determined by measuring agonist-induced interaction of […] with activated GPR119. A small, 42 amino acid enzyme fragment, called ProLink was appended to the C-terminus of GPR119. Arrestin was fused to the larger enzyme fragment, termed EA (Enzyme Acceptor). Activation of GPR119 stimulates binding of arrestin and forces the complementation of the two enzyme fragments, resulting in formation of a functional β-galactosidase enzyme capable of hydrolyzing substrate and generating a chemiluminescent signal.
EC50 determinations were made from an agonist-response curves analyzed with a curve fitting program using a 4-parameter logistic dose response equation.
T2 sequence (P32121 whole entry partner, one chain of several): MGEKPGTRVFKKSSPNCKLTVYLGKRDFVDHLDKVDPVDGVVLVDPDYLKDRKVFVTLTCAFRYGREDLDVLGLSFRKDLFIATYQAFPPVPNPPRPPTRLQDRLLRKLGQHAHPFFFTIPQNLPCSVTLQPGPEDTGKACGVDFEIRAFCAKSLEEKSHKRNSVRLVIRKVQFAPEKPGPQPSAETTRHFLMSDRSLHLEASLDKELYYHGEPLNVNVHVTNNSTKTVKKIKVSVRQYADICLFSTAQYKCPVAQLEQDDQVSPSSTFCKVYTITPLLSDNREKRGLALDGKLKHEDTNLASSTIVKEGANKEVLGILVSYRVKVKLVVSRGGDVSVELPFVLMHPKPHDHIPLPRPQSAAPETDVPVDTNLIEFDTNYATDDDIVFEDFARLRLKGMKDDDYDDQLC

The target in assay [4] is T1, human GPR119. As to the kind of experiment: GPR119 radioligand binding assay ([3H]-Compound A or [3H]-Compound B, HEK 293FT membranes). The conditions noted are these: Ki from IC50 by Cheng-Prusoff; one value per run; read-out: Human Binding Ki.

pEC50, pKi: −log10 of the molar value. Several values for one entry are separate records, joined by “and”; a condition that tells them apart may be missing. Identical values can stand only once.

The source of these data is patent US20110020460A1, “GPR 119 MODULATORS” (Pfizer Inc., priority 2009, published 2011).

Broadly, the pEC50 is the EC50 on a negative log10 scale, so that one unit is a factor of ten. A word on the pKi: it is the negative decadic logarithm of the Ki, by convention in mol/L.

`CC(C)OC(=O)N1CCC(n2ncc(COc3ccc(-n4cnnn4)cc3F)c2C#N)CC1` [Example 3, Isopropyl 4-(5-cyano-4-{[2-fluoro-4-(1H-tetrazol-1-yl)phenoxy]-methyl}-1H-pyrazol-1-yl)piperidine-1-carboxylate]: the “Intrinsic Activity* (cAMP)” value at human GPR119 [1] is 91% and 74% and 79% and 84%. Moreover, the Emax at human GPR119 [1] was determined as 86%; on human GPR119 [2] (percent of maximal activity relative to standard GPR119 agonist (WO2005121121) at 10 microM, read-out: Intrinsic Activity* (B-lactamase)), 98%; at human GPR119 [3] it was 111%. The pEC50 on human GPR119 [2] (hGPR119 HEK293-CRE beta-lactamase cells, read-out: Human B-lactamase Functional EC50) was 8.10 and 7.96 and 8.22; on human GPR119 [3] it was 8.40. In addition, the “Intrinsic Activity* (B-lactamase)” value at human GPR119 [2] (percent of maximal activity relative to standard GPR119 agonist (WO2005121121) at 10 microM) is 105% and 96%. The negative-log Ki (pKi) on human GPR119 [4] was 8.30 and 8.00 and 7.43.
Take `CC1(OC(=O)N2CCC(n3ncc(COc4cc(F)ccc4F)c3C#N)CC2)CC1` [Example 13, 1-Methylcyclopropyl 4-{5-cyano-4-[(2,5-difluorophenoxy)methyl]-1H-pyrazol-1-yl}piperidine-1-carboxylate]: on human GPR119 [1], the pEC50 is 6.74 and 6.95; the “Intrinsic Activity* (cAMP)” value was 87%; the Emax stood at 95%. In addition, at human GPR119 [3], the pEC50 was 6.66 and the Emax was 119%. Further, on human GPR119 [4], the pKi was 6.83.
For `CC1(OC(=O)N2CCC(n3ncc(COc4ccc(C(N)=O)cc4F)c3C#N)CC2)CC1` [Example 15, 1-Methylcyclopropyl 4-{4-[(4-carbamoyl-2-fluorophenoxy)methyl]-5-cyano-1H-pyrazol-1-yl}piperidine-1-carboxylate], on human GPR119 [1], the pEC50 was 6.70 and 6.97 and 6.89; the “Intrinsic Activity* (cAMP)” value is 102% and 112% and 131%. For the same compound, at human GPR119 [3], the negative logarithm of the EC50 (pEC50) is 7.20 and the Emax came out at 104%. Besides, on human GPR119 [4], the pKi is 6.57 and 6.80.
As for `CC1(OC(=O)N2CCC(n3ncc(COc4c(F)ccc(F)c4F)c3C#N)CC2)CC1` [Example 31, 1-Methylcyclopropyl 4-{5-cyano-4-[(2,3,6-trifluorophenoxy)methyl]-1H-pyrazol-1-yl}piperidine-1-carboxylate], at human GPR119 [1], the negative logarithm of the EC50 (pEC50) was 7.25 and 7.28; the “Intrinsic Activity* (cAMP)” value was 109%; the Emax was 107%. On human GPR119 [3], the pEC50 is 6.81 and the Emax amounted to 92%. In addition, the negative logarithm of the Ki (pKi) at human GPR119 [4] is 6.34.
Consider `CC1(OC(=O)N2CCC(n3ncc(COc4cccc(F)c4F)c3C#N)CC2)CC1` [Example 14, 1-Methylcyclopropyl 4-{5-cyano-4-[(2,3-difluorophenoxy)methyl]-1H-pyrazol-1-yl}piperidine-1-carboxylate], for which, at human GPR119 [1], the negative logarithm of the EC50 (pEC50) was 6.36 and 6.31; the “Intrinsic Activity* (cAMP)” value amounted to 78%; the Emax worked out at 74%. Moreover, on human GPR119 [3], the pEC50 was 6.31 and the Emax worked out at 109%. Also, the negative-log Ki (pKi) on human GPR119 [4] was 6.14.
